Measured values from US20080045506A1 (GLAXO GROUP LIMITED, priority 2004, published 2008).
Counter-ions that a name gives are not always drawn.

What was measured:
[1] = target: T1, histamine H3 receptor (Homo sapiens, UniProt Q9Y5N1); test: Histamine H3 functional antagonist assay (method A); format: biochemical; conditions: [35S]-GTPγS SPA, membrane prepared from cultured H3 cells, histamine at EC80, averages of a number of experiments, read-out: functional pKi (fpKi), antagonism (converted)
T1 construct: expressed in transfected cells; host or cells: CHO K1 cells (pSwitch/pGene GeneSwitch system, mifepristone-induced), clone 3H3; membranes
Source text: (§1) A membrane preparation containing histamine H3 receptors may be prepared in accordance with the following procedures:
(§2) (i) Generation of Histamine H3 Cell Line
(§3) DNA encoding the human histamine H3 gene (Huvar, A. et al. (1999) Mol. Pharmacol. 55(6), 1101-1107) was cloned into a holding vector, pcDNA3.1 TOPO (InVitrogen) and its cDNA was isolated from this vector by restriction digestion of plasmid DNA with the enzymes BamH1 and Not-1 and ligated into the inducible expression vector pGene (InVitrogen) digested with the same enzymes. The GeneSwitch™ system (a system where in transgene expression is switched off in the absence of an inducer and switched on in the presence of an inducer) was performed as described in U.S. Pat. Nos. 5,364,791; 5,874,534; and 5,935,934. Ligated DNA was transformed into competent DH5α E. coli host bacterial cells and plated onto Luria Broth (LB) agar containing Zeocin™ (an antibiotic which allows the selection of cells expressing the sh ble gene which is present on pGene and pSwitch) at 50 μg ml^−1. Colonies containing the re-ligated plasmid were identified by restriction analysis. DNA for transfection into mammalian cells was prepared from 250 ml cultures of the host bacterium containing the pGeneH3 plasmid and isolated using a DNA preparation kit (Qiagen Midi-Prep) as per manufacturers guidelines (Qiagen).
(§4) CHO K1 cells previously transfected with the pSwitch regulatory plasmid (InVitrogen) were seeded at 2×10e6 cells per T75 flask in Complete Medium, containing Hams F12 (GIBCOBRL, Life Technologies) medium supplemented with 10% v/v dialysed foetal bovine serum, L-glutamine, and hygromycin (100 μg ml^−1), 24 hours prior to use. Plasmid DNA was transfected into the cells using Lipofectamine plus according to the manufacturers guidelines (InVitrogen). 48 hours post transfection cells were placed into complete medium supplemented with 500 μg ml^−1 Zeocin™.
(§5) 10-14 days post selection 10 nM Mifepristone (InVitrogen), was added to the culture medium to induce the expression of the receptor. 18 hours post induction cells were detached from the flask using ethylenediamine tetra-acetic acid (EDTA; 1:5000; InVitrogen), following several washes with phosphate buffered saline pH 7.4 and resuspended in Sorting Medium containing Minimum Essential Medium (MEM), without phenol red, and supplemented with Earles salts and 3% Foetal Clone II (Hyclone). Approximately 1×10e7 cells were examined for receptor expression by staining with a rabbit polyclonal antibody, 4a, raised against the N-terminal domain of the histamine H3 receptor, incubated on ice for 60 minutes, followed by two washes in sorting medium. Receptor bound antibody was detected by incubation of the cells for 60 minutes on ice with a goat anti rabbit antibody, conjugated with Alexa 488 fluorescence marker (Molecular Probes). Following two further washes with Sorting Medium, cells were filtered through a 50 μm Filcon™ (BD Biosciences) and then analysed on a FACS Vantage SE Flow Cytometer fitted with an Automatic Cell Deposition Unit. Control cells were non-induced cells treated in a similar manner. Positively stained cells were sorted as single cells into 96-well plates, containing Complete Medium containing 500 μg ml^−1 Zeocin™ and allowed to expand before reanalysis for receptor expression via antibody and ligand binding studies. One clone, 3H3, was selected for membrane preparation.
(ii) Membrane Preparation from Cultured Cells […]

[2] = target: T1, histamine H3 receptor; test: Histamine H3 functional antagonist assay (method B); format: biochemical; conditions: [35S]-GTPγS SPA, membrane prepared from cultured H3 cells, histamine at EC80, averages of a number of experiments, read-out: functional pKi (fpKi), antagonism (converted)
Source text: as §1, §2, §3, §4, §5
(ii) Membrane Preparation from Cultured Cells
All steps of the protocol are carried out at 4° C. and with pre-cooled reagents. The cell pellet is resuspended in 10 volumes of homogenisation buffer (50 mM N-2-hydroxyethylpiperazine-N′-2-ethanesulfonic acid (HEPES), 1 mM ethylenediamine tetra-acetic acid (EDTA), pH 7.4 with KOH, supplemented with 10e-6M leupeptin (acetyl-leucyl-leucyl-arginal; Sigma L2884), 25 μg/ml bacitracin (Sigma B0125), 1 mM phenylmethylsulfonyl fluoride (PMSF) and 2×10e-6M pepstain A (Sigma)). […]

T1 sequence (Q9Y5N1 whole entry): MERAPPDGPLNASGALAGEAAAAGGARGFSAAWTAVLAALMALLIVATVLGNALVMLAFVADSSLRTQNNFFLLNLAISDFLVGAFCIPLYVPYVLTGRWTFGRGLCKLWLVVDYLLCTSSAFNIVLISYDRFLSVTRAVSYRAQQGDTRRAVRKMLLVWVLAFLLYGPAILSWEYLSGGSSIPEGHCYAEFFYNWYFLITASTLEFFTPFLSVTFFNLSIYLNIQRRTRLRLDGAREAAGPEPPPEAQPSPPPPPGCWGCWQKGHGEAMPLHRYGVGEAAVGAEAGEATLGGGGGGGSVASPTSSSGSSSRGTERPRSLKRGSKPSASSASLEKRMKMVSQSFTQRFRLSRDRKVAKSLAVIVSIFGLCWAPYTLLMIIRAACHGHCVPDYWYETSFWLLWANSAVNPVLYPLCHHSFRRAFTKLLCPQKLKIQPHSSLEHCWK

Structure (SMILES) | Ki [1] | Ki [2]
CC(C)N1CCCN(C(=O)C2CCN(c3ccc(C(F)(F)F)nc3)C2)CC1 (racemic) [Example E22, (R,S)-1-(1-Methylethyl)-4-({(1-[6-(trifluoromethyl)-3-pyridinyl]-3-pyrrolidinyl}carbonyl)hexahydro-1H-1,4-diazepine hydrochloride] | < 10 nM | 
CCC(CC)N1CCN(C(=O)[C@H]2CCN(c3ccc(C(C)=O)cc3)C2)CC1 [Example E8, 1-[4-((3S)-3-{[4-(1-Ethylpropyl)-1-piperazinyl]carbonyl}-1-pyrrolidinyl)phenyl]ethanone] |  | ≤ 0.316 nM
CC(=O)c1ccc(N2CC[C@H](C(=O)N3CCN(C(C)C)[C@@H](C)C3)C2)cc1 [Example E5, 1-[4-((3S)-3-{[(3S)-3-Methyl-4-(1-methylethyl)-1-piperazinyl]carbonyl}-1-pyrrolidinyl)phenyl]ethanone] |  | ≤ 0.316 nM
Cc1cn(-c2ccc(N3CC[C@H](C(=O)N4CCN(C(C)C)CC4)C3)cc2)cn1 [Example E55, 1-(1-Methylethyl)-4-({(3S)-1-[4-(4-methyl-1H-imidazol-1-yl)phenyl]-3-pyrrolidinyl}carbonyl)piperazine dihydrochloride] |  | ≤ 0.316 nM
CC(=O)c1ccc(N2CC[C@H](C(=O)N3CCCN(C(C)C)CC3)C2)cc1 [Example E27, 1-[4-((3S)-3-{[4-(1-Methylethyl)hexahydro-1H-1,4-diazepin-1-yl]carbonyl}-1-pyrrolidinyl)phenyl]ethanone] |  | ≤ 0.316 nM
CCc1noc(-c2ccc(N3CC[C@H](C(=O)N4CCN(C(C)C)CC4)C3)cc2)n1 [Example E49, 1-({(3S)-1-[4-(3-Ethyl-1,2,4-oxadiazol-5-yl)phenyl]-3-pyrrolidinyl}carbonyl)-4-(1-methylethyl)piperazine hydrochloride] |  | ≤ 0.316 nM
CC(=O)c1ccc(N2CC[C@H](C(=O)N3CCN(C(C)C)CC3)C2)cc1 [Example E2, 1-[4-((3S)-3-{[4-(1-Methylethyl)-1-piperazinyl]carbonyl}-1-pyrrolidinyl)phenyl]ethanone] |  | ≤ 0.316 nM
Cc1nnc(-c2ccc(N3CC[C@H](C(=O)N4CCN(C(C)C)CC4)C3)cc2)o1 [Example E30, 1-(1-Methylethyl)-4-({(3S)-1-[4-(5-methyl-1,3,4-oxadiazol-2-yl)phenyl]-3-pyrrolidinyl}carbonyl)piperazine] |  | ≤ 0.316 nM
CC(C)N1CCN(C(=O)[C@H]2CCN(c3ccc(C#N)cc3)C2)CC1 [Example E36, 4-((3S)-3-{[4-(1-Methylethyl)-1-piperazinyl]carbonyl}-1-pyrrolidinyl)benzonitrile hydrochloride] |  | ≤ 0.316 nM

The next lines start with the values.

Ki [1] | Ki [2] | Structure (SMILES)
< 0.316 nM |  | O=C(C1CCN(c2ccnc(C(F)(F)F)c2)C1)N1CCCN(C2CCC2)CC1 (racemic) [Example E23, (R,S)-1-Cyclobutyl-4-({1-[2-(trifluoromethyl)-4-pyridinyl]-3-pyrrolidinyl}carbonyl)hexahydro-1H-1,4-diazepine hydrochloride]
< 0.316 nM |  | O=C([C@H]1CCN(c2ccc(C(F)(F)F)nc2)C1)N1CCCN(C2CCC2)CC1 (single isomer, unassigned) [Example E17B, hydrochloride]
< 0.316 nM | ≤ 0.316 nM | O=C(C1CCN(c2ccc(C(F)(F)F)nc2)C1)N1CCCN(C2CCC2)CC1 (racemic) [Example E17, (R,S)-1-Cyclobutyl-4-({1-[6-(trifluoromethyl)-3-pyridinyl]-3-pyrrolidinyl}carbonyl)hexahydro-1H-1,4-diazepine]
 | ≤ 0.316 nM | Cc1noc(-c2ccc(N3CC[C@H](C(=O)N4CCN(C5CCC5)CC4)C3)cn2)n1 [Example E51, 1-Cyclobutyl-4-({(3S)-1-[6-(3-methyl-1,2,4-oxadiazol-5-yl)-3-pyridinyl]-3-pyrrolidinyl}carbonyl)piperazine hydrochloride]
 | ≤ 0.316 nM | Cc1noc(-c2ccc(N3CC[C@H](C(=O)N4CCN(C(C)C)CC4)C3)cc2F)n1 [Example E24, 1-({(3S)-1-[3-Fluoro-4-(3-methyl-1,2,4-oxadiazol-5-yl)phenyl]-3-pyrrolidinyl}carbonyl)-4-(1-methylethyl)piperazine]
 | < 10 nM | Cc1ccc2cc(N3CCC(C(=O)N4CCCN(C5CCC5)CC4)C3)ccc2n1 (racemic) [Example E19, (R,S)-6-{3-[(4-Cyclobutylhexahydro-1H-1,4-diazepin-1-yl)carbonyl]-1-pyrrolidinyl}-2-methylquinoline]
 | ≤ 0.316 nM | Cc1noc(-c2ccc(N3CC[C@H](C(=O)N4CCCN(C5CCC5)CC4)C3)cc2)n1 (single isomer, unassigned) [Example E18B, hydrochloride]
 | ≤ 0.316 nM | Cc1noc(-c2ccc(N3CC[C@H](C(=O)N4CCCN(C5CCC5)CC4)C3)c(F)c2)n1 (single isomer, unassigned) [Example E20B, hydrochloride]
 | ≤ 0.316 nM | Cc1noc(-c2ccc(N3CC[C@H](C(=O)N4CCN(C5CCC5)CC4)C3)cc2)n1 [Example E13, 1-Cyclobutyl-4-({(3S)-1-[4-(3-methyl-1,2,4-oxadiazol-5-yl)phenyl]-3-pyrrolidinyl}carbonyl)piperazine]
 | ≤ 0.316 nM | CCC(CC)N1CCN(C(=O)[C@H]2CCN(c3ccc(-c4nc(C)no4)cc3)C2)CC1 [Example E9, 1-(1-Ethylpropyl)-4-({(3S)-1-[4-(3-methyl-1,2,4-oxadiazol-5-yl)phenyl]-3-pyrrolidinyl}carbonyl)piperazine]
 | ≤ 0.316 nM | Cc1noc(-c2ccc(N3CC[C@H](C(=O)N4CCCN(C(C)C)CC4)C3)cn2)n1 [Example E53, 1-(1-Methylethyl)-4-({(3S)-1-[6-(3-methyl-1,2,4-oxadiazol-5-yl)-3-pyridinyl]-3-pyrrolidinyl}carbonyl)hexahydro-1H-1,4-diazepine hydrochloride]
< 0.316 nM |  | O=C([C@@H]1CCN(c2ccc(C(F)(F)F)nc2)C1)N1CCCN(C2CCC2)CC1 (single isomer, unassigned) [Example E17A, hydrochloride]
 | ≤ 0.316 nM | Cc1noc(-c2ccc(N3CC[C@@H](C(=O)N4CCCN(C5CCC5)CC4)C3)cc2)n1 (single isomer, unassigned) [Example E18A, hydrochloride]
